{
  "source": "ChEMBL document CHEMBL3739262",
  "about": "“Flavones Inhibit the Activity of AKR1B10, a Promising Therapeutic Target for Cancer Treatment” (J Nat Prod, 2015)",
  "key": {"[1]": {"target": "T1, Aldo-keto reductase family 1 member B10 (Homo sapiens, UniProt O60218)", "experiment": "Inhibition of recombinant human N-terminal His6-tagged AKR1B10 expressed in Escherichia coli BL21 cells using all-trans-retinal as substrate at 20 uM incubated for 15 mins by HPLC method"}, "[2]": {"target": "T1, Aldo-keto reductase family 1 member B10", "experiment": "Inhibition of recombinant human AKR1B10 expressed in human HCT116 cells assessed as reduction in daunorubicinol production using daunorubicin as substrate at 20 uM incubated for 4 to 8 hrs by UHPLC based transient transfection assay", "assay_type": "cell-based", "conditions": "HCT-116"}, "[3]": {"target": "T1, Aldo-keto reductase family 1 member B10", "experiment": "Inhibition of recombinant human AKR1B10 expressed in human HCT116 cells assessed as reduction in daunorubicinol production using daunorubicin as substrate at 10 uM incubated for 4 to 8 hrs by UHPLC based transient transfection assay", "assay_type": "cell-based", "conditions": "HCT-116"}, "[4]": {"target": "T1, Aldo-keto reductase family 1 member B10", "experiment": "Inhibition of recombinant human N-terminal His6-tagged AKR1B10 expressed in Escherichia coli BL21 cells using all-trans-retinal as substrate incubated for 15 mins by HPLC method"}, "[5]": {"target": "Aldo-keto reductase family 1 member B1 (Homo sapiens, UniProt P15121)", "experiment": "Inhibition of recombinant N-terminal His6-tagged AKR1B1 (unknown origin) expressed in Escherichia coli BL21 cells using all-trans-retinal as substrate incubated for 15 mins by HPLC method"}, "[6]": {"experiment": "Cytotoxicity against human HCT116 cells assessed as cell viability after 72 hrs by MTT assay", "assay_type": "cell-based", "conditions": "HCT-116, 72 h"}, "[7]": {"target": "T1, Aldo-keto reductase family 1 member B10", "experiment": "Inhibition of recombinant human N-terminal His6-tagged AKR1B10 expressed in Escherichia coli BL21 cells using daunorubicin as substrate incubated for 20 mins by UHPLC method"}, "[8]": {"target": "T1, Aldo-keto reductase family 1 member B10", "experiment": "Potency index, ratio of IC50 for flufenamic acid to IC50 for text compound for inhibition of recombinant human N-terminal His6-tagged AKR1B10 expressed in Escherichia coli BL21 cells using all-trans-retinal as substrate incubated for 15 mins by HPLC method"}, "[9]": {"target": "T1, Aldo-keto reductase family 1 member B10", "experiment": "Non-competitive inhibition of recombinant human N-terminal His6-tagged AKR1B10 expressed in Escherichia coli BL21 cells using all-trans-retinal as substrate incubated for 15 mins by Lineweaver-Burk plot analysis"}, "[10]": {"target": "T1, Aldo-keto reductase family 1 member B10", "experiment": "Inhibition of recombinant human AKR1B10 expressed in human HCT116 cells assessed as reduction in daunorubicinol production using daunorubicin as substrate incubated for 4 to 8 hrs by UHPLC based transient transfection assay", "assay_type": "cell-based", "conditions": "HCT-116"}},
  "note": "Active and inactive are the calls of the source. The rule behind the calls is not given here.",
  "data": [
    {"compound": "O=c1c(O)c(-c2ccc(O)cc2O)oc2cc(O)cc(O)c12", "values": [
      {"measurement": "inhibition", "setting": "[1]", "result": "Active"}
    ]},
    {"compound": "O=C1CC(c2ccc(O)cc2)Oc2ccccc21", "note": "(stereo unspecified)", "values": [
      {"measurement": "inhibition", "setting": "[1]", "result": "Active"}
    ]},
    {"compound": "Oc1cc(O)c2c(c1)O[C@H](c1ccc(O)c(O)c1)[C@@H](O)C2", "values": [
      {"measurement": "inhibition", "setting": "[1]", "result": "Active"}
    ]},
    {"compound": "O=c1c(O)c(-c2ccc(O)c(O)c2)oc2cc(O)cc(O)c12", "values": [
      {"measurement": "inhibition", "setting": "[2]", "result": 23, "unit": "%"},
      {"measurement": "inhibition", "setting": "[1]", "result": "Active"},
      {"measurement": "inhibition", "setting": "[3]", "result": 18, "unit": "%"}
    ]},
    {"compound": "O=c1cc(-c2ccccc2)oc2cc(O)ccc12", "note": "[7-HYDROXYFLAVONE]", "values": [
      {"measurement": "inhibition", "setting": "[2]", "result": 19, "unit": "%"},
      {"measurement": "IC50", "setting": "[4]", "result": 8.3, "unit": "µM"},
      {"measurement": "inhibition", "setting": "[1]", "result": "Active"},
      {"measurement": "IC50", "setting": "[5]", "result": 12.3, "unit": "µM"},
      {"measurement": "EC50", "setting": "[6]", "result": "> 50", "unit": "µM"},
      {"measurement": "IC50", "setting": "[7]", "result": 160, "unit": "µM"},
      {"measurement": "Ratio IC50", "setting": "[8]", "result": 10}
    ]},
    {"compound": "O=C(CCc1ccc(O)cc1)c1c(O)cc(O)cc1O[C@@H]1O[C@H](CO)[C@@H](O)[C@H](O)[C@H]1O", "values": [
      {"measurement": "inhibition", "setting": "[1]", "result": "Active"}
    ]},
    {"compound": "O=C(O[C@@H]1Cc2c(O)cc(O)cc2O[C@@H]1c1cc(O)c(O)c(O)c1)c1cc(O)c(O)c(O)c1", "values": [
      {"measurement": "inhibition", "setting": "[1]", "result": "Active"}
    ]},
    {"compound": "O=c1cc(-c2ccc(O)cc2)oc2cc(O)cc(O)c12", "note": "[APIGENIN]", "values": [
      {"measurement": "inhibition", "setting": "[2]", "result": 34, "unit": "%"},
      {"measurement": "IC50", "setting": "[4]", "result": 6.6, "unit": "µM"},
      {"measurement": "inhibition", "setting": "[1]", "result": "Active"},
      {"measurement": "IC50", "setting": "[5]", "result": 11.9, "unit": "µM"},
      {"measurement": "Ki", "setting": "[9]", "result": 6, "unit": "µM"},
      {"measurement": "EC50", "setting": "[6]", "result": 23.8, "unit": "µM"},
      {"measurement": "IC50", "setting": "[7]", "result": 37.1, "unit": "µM"},
      {"measurement": "inhibition", "setting": "[3]", "result": 25, "unit": "%"},
      {"measurement": "Ratio IC50", "setting": "[8]", "result": 10}
    ]},
    {"compound": "COc1ccc(-c2coc3cc(O)cc(O)c3c2=O)cc1", "note": "[BIOCHANIN]", "values": [
      {"measurement": "IC50", "setting": "[4]", "result": 36.1, "unit": "µM"},
      {"measurement": "inhibition", "setting": "[1]", "result": "Active"},
      {"measurement": "IC50", "setting": "[5]", "result": 127, "unit": "µM"}
    ]},
    {"compound": "C[C@@H]1O[C@@H](Oc2c(-c3ccc(O)c(O)c3)oc3cc(O)cc(O)c3c2=O)[C@H](O)[C@H](O)[C@H]1O", "values": [
      {"measurement": "inhibition", "setting": "[1]", "result": "Active"}
    ]},
    {"compound": "O=C(/C=C/c1ccc(O)c(O)c1)O[C@@H]1C[C@](O)(C(=O)O)C[C@@H](O)[C@H]1O", "values": [
      {"measurement": "inhibition", "setting": "[1]", "result": "Active"}
    ]},
    {"compound": "O=c1cc(-c2ccc(O)cc2)oc2c([C@@H]3O[C@H](CO)[C@@H](O)[C@H](O)[C@H]3O)c(O)cc(O)c12", "values": [
      {"measurement": "inhibition", "setting": "[1]", "result": "Active"}
    ]},
    {"compound": "O=c1cc(-c2ccc(O)c(O)c2)oc2cc(O)cc(O)c12", "note": "[LUTEOLIN]", "values": [
      {"measurement": "inhibition", "setting": "[2]", "result": 33, "unit": "%"},
      {"measurement": "IC50", "setting": "[4]", "result": 9.2, "unit": "µM"},
      {"measurement": "inhibition", "setting": "[1]", "result": "Active"},
      {"measurement": "EC50", "setting": "[6]", "result": 26.7, "unit": "µM"},
      {"measurement": "IC50", "setting": "[7]", "result": 108, "unit": "µM"}
    ]},
    {"compound": "O=c1cc(-c2ccccc2)oc2cccc(O)c12", "values": [
      {"measurement": "inhibition", "setting": "[1]", "result": "Active"}
    ]},
    {"compound": "COc1ccc([C@@H]2CC(=O)c3c(O)cc(O)cc3O2)cc1O", "values": [
      {"measurement": "inhibition", "setting": "[1]", "result": "Active"}
    ]},
    {"compound": "O=C(O)c1ccccc1Nc1cccc(C(F)(F)F)c1", "note": "[FLUFENAMIC ACID]", "values": [
      {"measurement": "IC50", "setting": "[4]", "result": 96, "unit": "µM"},
      {"measurement": "inhibition", "setting": "[1]", "result": "Active"},
      {"measurement": "inhibition", "setting": "[10]", "result": "inactive"}
    ]},
    {"compound": "O=c1c(O)c(-c2ccccc2)oc2ccccc12", "values": [
      {"measurement": "inhibition", "setting": "[1]", "result": "Active"}
    ]},
    {"compound": "COc1cc([C@H]2Oc3cc([C@H]4Oc5cc(O)c(O)cc5C(=O)[C@@H]4O)ccc3O[C@@H]2CO)ccc1O", "values": [
      {"measurement": "inhibition", "setting": "[1]", "result": "Active"}
    ]},
    {"compound": "O=c1c(-c2ccc(O)cc2)coc2cc(O)ccc12", "note": "[DAIDZEIN]", "values": [
      {"measurement": "IC50", "setting": "[4]", "result": 32.2, "unit": "µM"},
      {"measurement": "inhibition", "setting": "[1]", "result": "Active"},
      {"measurement": "IC50", "setting": "[5]", "result": 162, "unit": "µM"}
    ]},
    {"compound": "O=C(O)c1ccc(O)cc1", "values": [
      {"measurement": "inhibition", "setting": "[1]", "result": "Active"}
    ]},
    {"compound": "C[C@@H]1O[C@@H](OC[C@H]2O[C@@H](Oc3c(-c4ccc(O)c(O)c4)oc4cc(O)cc(O)c4c3=O)[C@H](O)[C@@H](O)[C@@H]2O)[C@H](O)[C@H](O)[C@H]1O", "values": [
      {"measurement": "inhibition", "setting": "[1]", "result": "Active"}
    ]},
    {"compound": "O=C1CC(c2ccccc2O)Oc2ccccc21", "note": "(stereo unspecified)", "values": [
      {"measurement": "inhibition", "setting": "[1]", "result": "Active"}
    ]},
    {"compound": "O=C1C[C@@H](c2ccc(O)cc2)Oc2cc(O)cc(O)c21", "values": [
      {"measurement": "inhibition", "setting": "[1]", "result": "Active"}
    ]},
    {"compound": "O=C(O)/C=C/c1ccc(O)c(O)c1", "values": [
      {"measurement": "inhibition", "setting": "[1]", "result": "Active"}
    ]},
    {"compound": "O=C1c2c(O)cc(O)cc2O[C@H](c2ccc(O)c(O)c2)[C@H]1O", "values": [
      {"measurement": "inhibition", "setting": "[1]", "result": "Active"}
    ]}
  ]
}
